Laboratory results reported in US20110257171A1, “NOVEL IMIDAZO[1,2-A]PYRIDINE DERIVATIVES, METHOD FOR THE PREPARATION THEREOF, USE THEREOF AS MEDICAMENTS, PHARMACEUTICAL COMPOSITIONS AND NOVEL USE IN PARTICULAR AS MET INHIBITORS” (SANOFI-AVENTIS, priority 2008, published 2011).
Where a name gives a salt, the structure may show the parent alone.

Assays:
MET [1] = target: T1, MET (Homo sapiens, UniProt P08581); assay: Test A: HTRF MET assay in 96-well format; assay type: biochemical; design: The His-Tev-MET (956-1390) recombinant DNA in pFastBac (Invitrogen) is transfected into insect cells; His (N, cleaved yes); Tev cleavage site (N); made in house; host or cells: SF21 insect cells (baculovirus, pFastBac); conditions: MET 5 nM, 10 μM ATP
Method: The His-Tev-MET (956-1390) recombinant DNA in pFastBac (Invitrogen) is transfected into insect cells and, after several viral amplification steps, the final baculovirus stock is tested for the expression of the protein of interest.
After infection for 72 h at 27° C. with the recombinant virus, SF21 cell cultures are harvested by centrifugation and the cell pellets are stored at −80° C.
The cell pellets are resuspended in the lysis buffer (buffer A [50 mM HEPES, pH 7.5, 250 mM NaCl, 10% glycerol, 1 mM TECP]; +cocktail of protease inhibitors, Roche Diagnostics, without EDTA, ref 1873580), stirred at 4° C. until the mixture is homogeneous, and then lysed mechanically using a “Dounce” type apparatus.
After centrifugation, the lysis supernatant is incubated for 2 h at 4° C. with nickel chelate resin (His-Trap 6 Fast Flow™, GE HealthCare). After washing with 20 volumes of buffer A, the suspension is packed into a column, and the proteins are eluted with a gradient of buffer B (buffer A+290 mM imidazole).
The fractions containing the protein of interest, for the purpose of electrophoretic analysis (SDS PAGE), are combined, concentrated by ultrafiltration (10 kDa cut-off) and injected onto an exclusion chromatography column (Superdex® 200, GE HealthCare) equilibrated in buffer A.
After enzymatic cleavage of the histidine tag, the protein is reinjected onto a new IMAC nickel chelate chromatography column (His-Trap 6 Fast Flow™ GE HealthCare) equilibrated in buffer A. The fractions eluted with a gradient of buffer B and containing the protein of interest after electrophoresis (SDS PAGE) are finally combined and stored at −80° C.
For the production of autophosphorylated protein, the previous fractions are incubated for 1 h at ambient temperature after the addition of 2 mM ATP, 2 mM MgCl2 and 4 mM Na3VO4. After the reaction has been stopped with 5 mM of EDTA, the reaction mixture is injected onto a HiPrep desalifying column (GE HealthCare) pre-equilibrated in buffer A+4 mM Na3VO4, and the fractions containing the protein of interest (SDS PAGE analysis) are combined and stored at −80° C. The degree of phosphorylation is verified by mass spectrometry (LC-MS) and by peptide mapping.
MET at a final concentration of 5 nM is incubated in a final volume of 50 μl of enzymatic reaction in the presence of the test molecule (for a final concentration range of from 0.17 nM to 10 μM, 3% DMSO final concentration) in 10 mM MOPS buffer, pH 7.4, 1 mM DTT, 0.01% Tween 20. The reaction is initiated with the substrate solution to obtain final concentrations of 1 μg/ml poly-(GAT), 10 μM ATP and 5 mM MgCl2. After incubation for 10 min at ambient temperature, the reaction is stopped with a 30 μl mix so as to obtain a final solution of 50 mM Hepes, pH 7.5, 500 mM potassium fluoride, 0.1% BSA and 133 mM EDTA in the presence of 80 ng of streptavidin 61 SAXLB Cis-Bio Int. and 18 ng of anti-phosphotyrosine Mab PT66-Europium Cryptate per well. After incubation for 2 hours at ambient temperature, the reading is taken at 2 wavelengths, 620 nm and 665 nm, on a reader for the TRACE/HTRF technique, and the % inhibition is calculated from the 665/620 ratios.
Target sequence in this assay (P08581 956-1390): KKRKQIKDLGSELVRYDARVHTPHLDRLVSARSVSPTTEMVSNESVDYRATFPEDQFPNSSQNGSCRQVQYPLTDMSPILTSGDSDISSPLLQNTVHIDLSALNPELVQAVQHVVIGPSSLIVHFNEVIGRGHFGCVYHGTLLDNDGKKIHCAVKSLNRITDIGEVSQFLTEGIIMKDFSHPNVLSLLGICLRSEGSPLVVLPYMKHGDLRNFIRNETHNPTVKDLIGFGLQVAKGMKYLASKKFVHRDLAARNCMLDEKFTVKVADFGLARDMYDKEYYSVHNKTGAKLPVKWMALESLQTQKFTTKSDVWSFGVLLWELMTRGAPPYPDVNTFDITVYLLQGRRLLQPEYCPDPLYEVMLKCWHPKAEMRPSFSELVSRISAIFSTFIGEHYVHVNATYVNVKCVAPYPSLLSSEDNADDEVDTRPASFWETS

MET [2] = target: T1, MET; assay: Test B: inhibition of the autophosphorylation of MET, ELISA technique (pppY1230, 1234, 1235) in MKN45 cells; assay type: cell-based; design: endogenous in cells; host or cells: MKN45 cells; conditions: 1 h treatment, phosphoMET ELISA
Method: B) Test B: Inhibition of the Autophosphorylation of Met; ELISA Technique (pppY1230, 1234, 1235) a) Cell lysates: MKN45 cells are seeded into 96-well plates (cell coat BD polylysine) at 20 000 cells/well in 200 μl of RPMI medium+10% FCS+1% L-glutamine. They are left to adhere for 24 hours in an incubator.
The cells are treated the day after seeding with the products at 6 concentrations, in duplicate, for 1 h. At least 3 control wells are treated with the same final amount of DMSO.
Product dilution: Stock at 10 mM in pure DMSO—range from 10 mM to 30 μM with an increment of 3 in pure DMSO—intermediate dilutions to 1/50 in culture medium and then removal of 10 μl added directly to the cells (200 μl): final range of 10 000 to 30 nM.
At the end of the incubation, the supernatant is carefully removed and rinsing is performed with 200 μl of PBS. Next, 100 μl of lysis buffer are placed directly in the wells on ice and incubated at 4° C. for 30 minutes. Lysis buffer: 10 mM Tris HCl, pH 7.4, 100 mM NaCl, 1 mM EDTA, 1 mM EGTA, 1% Triton X-100, 10% glycerol, 0.1% SDS, 0.5% deoxycholate, 20 mM NaF, 2 mM Na3VO4, 1 mM PMSF and cocktail of antiproteases.
The 100 μl of lysates are transferred into a V-bottomed polypropylene plate and the ELISA is performed immediately, or the plate is frozen at −80° C.
70 μl of kit dilution buffer+30 μL of cell lysate, or 30 μl of lysis buffer for the blanks, are added to each well of the kit plate. Incubation is carried out for 2 h with gentle agitation at ambient temperature.
The wells are rinsed 4 times with 400 μl of kit washing buffer. Incubation is carried out with 100 μl of anti-phospho MET antibody for 1 hour at ambient temperature.
The wells are rinsed 4 times with 400 μl of kit washing buffer. Incubation is carried out with 100 μl of anti-rabbit HRP antibody for 30 minutes at ambient temperature (except for the wells of chromogen alone).
The wells are rinsed 4 times with 400 μl of kit washing buffer. 100 μL of chromogen are introduced and incubation is carried out for 30 minutes in the dark at ambient temperature.
The reaction is stopped with 100 μl of stop solution. The plate is read without delay at […], 0.1 second on a Wallac Victor plate reader.
Target sequence in this assay (P08581 25-1390): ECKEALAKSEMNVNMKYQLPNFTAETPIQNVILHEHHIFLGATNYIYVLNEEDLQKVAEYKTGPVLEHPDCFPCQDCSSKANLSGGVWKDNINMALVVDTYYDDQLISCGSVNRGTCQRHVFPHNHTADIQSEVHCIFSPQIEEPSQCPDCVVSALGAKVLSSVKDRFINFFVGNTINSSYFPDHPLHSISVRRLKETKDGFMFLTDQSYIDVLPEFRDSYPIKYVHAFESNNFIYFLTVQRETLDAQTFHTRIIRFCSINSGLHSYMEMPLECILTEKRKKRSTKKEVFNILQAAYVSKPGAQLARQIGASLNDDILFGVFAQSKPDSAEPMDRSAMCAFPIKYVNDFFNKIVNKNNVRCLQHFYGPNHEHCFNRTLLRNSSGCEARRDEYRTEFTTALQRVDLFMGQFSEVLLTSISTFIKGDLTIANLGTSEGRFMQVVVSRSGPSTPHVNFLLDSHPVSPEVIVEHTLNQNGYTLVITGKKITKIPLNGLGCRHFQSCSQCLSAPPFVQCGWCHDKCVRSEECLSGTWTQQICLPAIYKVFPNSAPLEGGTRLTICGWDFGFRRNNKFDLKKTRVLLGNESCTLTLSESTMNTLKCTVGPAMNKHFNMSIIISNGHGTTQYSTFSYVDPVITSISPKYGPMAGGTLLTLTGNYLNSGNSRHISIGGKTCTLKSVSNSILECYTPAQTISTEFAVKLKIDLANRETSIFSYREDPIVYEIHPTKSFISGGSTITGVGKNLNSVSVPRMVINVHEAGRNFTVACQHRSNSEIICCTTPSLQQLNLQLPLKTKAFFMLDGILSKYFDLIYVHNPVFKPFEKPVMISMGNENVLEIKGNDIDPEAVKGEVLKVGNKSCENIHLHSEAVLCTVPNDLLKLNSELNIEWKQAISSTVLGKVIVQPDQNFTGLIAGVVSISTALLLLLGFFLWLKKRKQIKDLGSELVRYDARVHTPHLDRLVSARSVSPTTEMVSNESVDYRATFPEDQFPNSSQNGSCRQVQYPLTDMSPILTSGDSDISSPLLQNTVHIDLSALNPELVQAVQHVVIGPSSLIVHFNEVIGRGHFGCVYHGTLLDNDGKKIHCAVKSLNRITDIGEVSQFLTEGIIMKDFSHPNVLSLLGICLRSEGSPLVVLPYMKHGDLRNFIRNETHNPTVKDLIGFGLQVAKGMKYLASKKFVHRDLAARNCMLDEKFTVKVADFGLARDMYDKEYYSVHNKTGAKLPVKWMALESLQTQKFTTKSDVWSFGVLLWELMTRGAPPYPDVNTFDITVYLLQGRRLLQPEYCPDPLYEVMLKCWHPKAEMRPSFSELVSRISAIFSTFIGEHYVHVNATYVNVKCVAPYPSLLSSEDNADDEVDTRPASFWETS

[3] = system: HCT116 cells and MKN45 cells; assay: Test C: measurement of cell proliferation by 14C-thymidine pulse; assay type: cell-based; conditions: 14C-thymidine incorporation, 96 h of treatment; cell line not given
Method: The cells are seeded into Cytostar 96-well plates in 180 μl for 4 hours at 37° C. and 5% CO2: HCT116 cells in a proportion of 2500 cells per well in DMEM medium+10% foetal calf serum+1% L-glutamine, and MKN45 cells in a proportion of 7500 cells per well in RPMI medium+10% foetal calf serum+1% L-glutamine. After these 4 hours of incubation, the products are added in 10 μl as a […] concentrated solution according to the dilution method mentioned for the ELISA. The products are tested at 10 concentrations in duplicate from 10 000 nM to 0.3 nM with an increment of 3.
After treatment for 72 h, 10 μl of ^14C-thymidine at 10 μCi/ml are added so as to obtain 0.1 μCi per well. The ^14C-thymidine incorporation is measured on a Micro-Beta machine (Perkin-Elmer) after 24 hours of pulse and 96 h of treatment.
All the steps of the assay are automated on BIOMEK 2000 or TECAN stations.

Structure (SMILES)	IC50 (MET [1]) [nM]	IC50 (MET [2]) [nM]	IC50 [3] [nM]	melting point [°C]
O=C(NCCN1CCOCC1)Nc1nc2ccc(Sc3cnc4ccc(-c5ccc(F)cc5)cn34)cc2s1 [Example 6, 1-(6-{[6-(4-fluorophenyl)imidazo[1,2-a]pyridin-3-yl]sulphanyl}-1,3-benzothiazol-2-yl)-3-[2-(morpholin-4-yl)ethyl]urea]	< 100	< 100	< 1000	–
O=C(Nc1nc2ccc(Sc3cnc4ccccn34)cc2s1)C1CC1 [Example 1, N-{[6-(imidazo[1,2-a]pyridin-3-yl)sulphanyl]-1,3-benzothiazol-2-yl}cyclopropanecarboxamide]	< 100	< 100	< 1000	–
O=C(Nc1nc2ccc(Sc3cnc4ccc(-c5cn[nH]c5)cn34)cc2s1)C1CC1 [Example 8, N-(6-{[6-(1H-pyrazol-4-yl)imidazo[1,2-a]pyridin-3-yl]sulphanyl}-1,3-benzothiazol-2-yl)cyclopropanecarboxamide]	< 100	< 100	< 1000	–
CC(=O)Nc1nc2ccc(Sc3cnc4ccc(-c5ccc(F)cc5)cn34)cc2s1 [Example 4, N-(6-{[6-(4-fluorophenyl)imidazo[1,2-a]pyridin-3-yl]sulphanyl}-1,3-benzothiazol-2-yl)acetamide]	< 100	< 100	< 1000	–
COCCNC(=O)Nc1nc2ccc(Sc3cnc4ccc(-c5ccc(F)cc5)cn34)cc2s1 [Example 5, 1-(6-{[6-(4-fluorophenyl)imidazo[1,2-a]pyridin-3-yl]sulphanyl}-1,3-benzothiazol-2-yl)-3-(2-methoxyethyl)urea]	< 100	< 100	< 1000	> 260
O=C(Nc1nc2ccc(Sc3cnc4ccc(-c5ccc(F)cc5)cn34)cc2s1)C1CC1 [Example 3, N-(6-{[6-(4-fluorophenyl)imidazo[1,2-a]pyridin-3-yl]sulphanyl}-1,3-benzothiazol-2-yl)cyclopropanecarboxamide]	< 100	< 100	< 1000	265
Cn1cc(-c2ccc3ncc(Sc4ccc5nc(NC(=O)C6CC6)sc5c4)n3c2)cn1 [Example 7, N-(6-{[6-(1-methyl-1H-pyrazol-4-yl)imidazo[1,2-a]pyridin-3-yl]sulphanyl}-1,3-benzothiazol-2-yl)cyclopropanecarboxamide]	< 100	< 100	< 1000	–
Nc1nc2ccc(Sc3cnc4ccc(-c5ccc(F)cc5)cn34)cc2s1 [Example 2, 6-{[6-(4-fluorophenyl)imidazo[1,2-a]pyridin-3-yl]sulphanyl}-1,3-benzothiazol-2-amine]	< 100	> 500	< 1000	258

Further lines, results first:

IC50 (MET [1]) [nM]	IC50 (MET [2]) [nM]	IC50 [3] [nM]	melting point [°C]	Structure (SMILES)
< 100	< 100	< 1000	247	CC(C)(C)OC(=O)N1CCC(n2cc(-c3ccc4ncc(Sc5ccc6nc(NC(=O)C7CC7)sc6c5)n4c3)cn2)CC1 [Example 11, tert-butyl 4-{4-[3-({2-[(cyclopropylcarbonyl)amino]-1,3-benzothiazol-6-yl}sulphanyl)imidazo[1,2-a]pyridin-6-yl]-1H-pyrazol-1-yl}piperidine-1-carboxylate]
–	–	–	230	O=C(Nc1nc2ccc(Sc3cnc4ccc(-c5cnn(C6CCNCC6)c5)cn34)cc2s1)C1CC1 (as salt: hydrochloride) [Example 12, N-[6-({6-[1-(piperidin-4-yl)1H-pyrazol-4-yl]imidazo[1,2-a]pyridin-3-yl}sulphanyl)-1,3-benzothiazol-2-yl]cyclopropanecarboxamide]
< 100	< 100	< 1000	> 260	O=C(Nc1nc2ccc(Sc3cnc4ccc(-c5cccc(F)c5)cn34)cc2s1)C1CC1 [Example 9, N-(6-{[6-(3-fluorophenyl)imidazo[1,2-a]pyridin-3-yl]sulphanyl}-1,3-benzothiazol-2-yl)cyclopropanecarboxamide]
< 100	< 100	< 1000	> 260	Cc1ccc(-c2ccc3ncc(Sc4ccc5nc(NC(=O)C6CC6)sc5c4)n3c2)cc1F [Example 10, N-(6-{[6-((3-fluoro-4-methyl)phenyl)imidazo[1,2-a]pyridin-3-yl]sulphanyl}-1,3-benzothiazol-2-yl)cyclopropanecarboxamide]
< 100	< 100	< 1000	–	O=C(Nc1nc2ccc(Sc3cnc4ccc(-c5cnn(C6CCNCC6)c5)cn34)cc2s1)C1CC1 [Example 12, N-[6-({6-[1-(piperidin-4-yl)1H-pyrazol-4-yl]imidazo[1,2-a]pyridin-3-yl}sulphanyl)-1,3-benzothiazol-2-yl]cyclopropanecarboxamide]
